Test results: patent publication US6391325B1, “Use of nitrogen-containing complexing agents for deodorization and antimicrobial treatment of the skin and textile fibre materials” (Ciba Specialty Chemicals Corporation, priority 1996, dated 2002)

Key:
[1] = test system: Corynebacterium xerosis ATCC 373; assay: Agar diffusion test (caso-agar, stamped-out holes); assay type: cell-based; conditions: for Inhibitory aureola diameter Cory. xerosis ATTC 373: 10000 ppm, 100 μl per hole in double-distilled water, 37° C. for 2 days, two values per cell
Method: (§1) Test method: An agar diffusion test is carried out with the following modifications: Medium: casein-soya flour peptone agar (caso-agar) Test organisms: Corynebacterium xerosis ATCC 373 Corynebacterium xerosis ATCC 7711 Corynebacterium minutissimum ATCC 23358 Procedure: 500 ml of caso-agar are innoculated with 3.5 ml of an overnight culture of the bacteria, diluted 1:100, and caso plates (18 ml) are covered with a layer of about 5 ml of the bacteria-containing agar. […] Each stamped-out hole is filled with in each case 100 μl of a test substance dilution and the plates are incubated at 37° C. for 2 days. Double-distilled water is employed as the solvent for all the substances. In the case of […], the pH is adjusted to 3.3 by addition of 1 N NaOH. Chemically prepared S,S-EDDS is adjusted to the pH of 5.6 by addition of 1 N NaOH. Controls: Double-distilled water

[2] = test system: Corynebacterium xerosis ATCC 7711; assay: Agar diffusion test (caso-agar, stamped-out holes); assay type: cell-based; conditions: 10000 ppm, 100 μl per hole in double-distilled water, 37° C. for 2 days; two values per cell
Method: as §1

## O=C(O)C[C@H](NCCN[C@@H](CC(=O)O)C(=O)O)C(=O)O [R,R-EDDS, ethylenediaminedisuccinic acid]
[1]
  Inhibitory aureola diameter Cory. xerosis ATTC 373: 15/15

## O=C(O)CN(CCN(CC(=O)O)CC(=O)O)CC(=O)O [EDTA, ethylenediaminetetraacetic acid, reference compound]
[1]
  Inhibitory aureola diameter Cory. xerosis ATTC 373: 5/5
[1]; summary in words of Table 1 (both strains)
  bacteriostatic action against Corynebacterium xerosis: pronounced bacteriostatic action
[2]
  Inhibitory aureola diameter Cory. xerosis ATTC 7711: 2/2

## O=C(O)C[C@H](NCCN[C@@H](CC(=O)O)C(=O)O)C(=O)O [S,S-EDDS (prepared by fermentation), (S,S)-N,N′-ethylenediaminedisuccinic acid]
[1]
  Inhibitory aureola diameter Cory. xerosis ATTC 373: 10/10^1
[2]
  Inhibitory aureola diameter Cory. xerosis ATTC 7711: 15/15^1
